The record followed here is patent publication US8426588B2, “Phenylalanine derivatives” (Ajinomoto Co, Inc., priority 2000, dated 2013).

Each structure is given as a SMILES string.

One assay concerns the target T1, integrin α4β7 (Homo sapiens, UniProt P13612+P26010).
T1 construct: lymphoma cell strain RPMI-8866 of human B cells, known to express integrin α4β7; endogenous in cells; host or cells: RPMI-8866
T1 sequence (P13612 34-1032): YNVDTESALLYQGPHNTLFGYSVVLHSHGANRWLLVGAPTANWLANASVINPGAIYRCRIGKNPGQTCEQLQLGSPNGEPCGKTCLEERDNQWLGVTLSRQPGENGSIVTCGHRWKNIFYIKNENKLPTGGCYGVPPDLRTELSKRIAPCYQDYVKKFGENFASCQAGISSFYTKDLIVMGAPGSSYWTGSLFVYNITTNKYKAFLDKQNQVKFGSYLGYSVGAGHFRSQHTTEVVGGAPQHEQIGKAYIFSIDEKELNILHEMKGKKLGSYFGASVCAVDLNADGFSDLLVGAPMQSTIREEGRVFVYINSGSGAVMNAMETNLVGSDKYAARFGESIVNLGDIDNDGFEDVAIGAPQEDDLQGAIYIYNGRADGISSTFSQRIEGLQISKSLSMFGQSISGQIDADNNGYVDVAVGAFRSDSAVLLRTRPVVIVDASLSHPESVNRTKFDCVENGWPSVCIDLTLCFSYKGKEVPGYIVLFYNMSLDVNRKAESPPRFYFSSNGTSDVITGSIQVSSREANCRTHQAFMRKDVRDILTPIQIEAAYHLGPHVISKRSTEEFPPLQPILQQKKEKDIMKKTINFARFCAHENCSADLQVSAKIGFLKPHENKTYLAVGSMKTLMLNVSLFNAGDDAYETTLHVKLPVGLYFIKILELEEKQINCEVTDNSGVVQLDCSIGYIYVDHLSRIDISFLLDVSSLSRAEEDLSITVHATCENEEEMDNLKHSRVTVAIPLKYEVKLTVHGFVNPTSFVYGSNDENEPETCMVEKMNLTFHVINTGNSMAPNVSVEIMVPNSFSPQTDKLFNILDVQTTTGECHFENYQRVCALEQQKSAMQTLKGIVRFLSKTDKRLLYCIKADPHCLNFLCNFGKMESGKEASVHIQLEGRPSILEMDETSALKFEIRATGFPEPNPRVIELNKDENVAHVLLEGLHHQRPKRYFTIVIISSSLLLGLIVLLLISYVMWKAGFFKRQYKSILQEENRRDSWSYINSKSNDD
T1 sequence (P26010 20-798): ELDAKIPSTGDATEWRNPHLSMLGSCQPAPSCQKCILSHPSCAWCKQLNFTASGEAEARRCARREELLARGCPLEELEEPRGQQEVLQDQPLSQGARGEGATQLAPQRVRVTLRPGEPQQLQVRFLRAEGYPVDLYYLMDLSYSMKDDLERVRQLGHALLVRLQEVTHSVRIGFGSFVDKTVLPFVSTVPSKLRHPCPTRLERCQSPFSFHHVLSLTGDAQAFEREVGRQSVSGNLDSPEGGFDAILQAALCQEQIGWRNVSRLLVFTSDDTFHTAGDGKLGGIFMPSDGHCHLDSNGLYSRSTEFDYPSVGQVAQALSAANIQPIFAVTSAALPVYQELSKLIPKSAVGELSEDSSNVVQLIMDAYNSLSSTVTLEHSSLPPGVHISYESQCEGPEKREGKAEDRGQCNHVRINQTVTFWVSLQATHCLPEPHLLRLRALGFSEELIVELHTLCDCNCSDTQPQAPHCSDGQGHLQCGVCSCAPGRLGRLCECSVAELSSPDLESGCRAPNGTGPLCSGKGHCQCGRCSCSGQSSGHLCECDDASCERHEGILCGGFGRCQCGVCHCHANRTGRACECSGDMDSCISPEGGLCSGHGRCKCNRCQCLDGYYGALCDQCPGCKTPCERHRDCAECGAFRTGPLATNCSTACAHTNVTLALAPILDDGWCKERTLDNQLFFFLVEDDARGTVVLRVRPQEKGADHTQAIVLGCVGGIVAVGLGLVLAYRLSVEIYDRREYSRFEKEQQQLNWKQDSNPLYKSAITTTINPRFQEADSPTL
As to the kind of experiment: VCAM antagonistic activity (VCAM-1/α4β7 binding assay), RPMI-8866 cells binding to VCAM-1. Type of assay: cell-based. Conditions: RPMI-8866 human B lymphoma cells binding to recombinant human VCAM-1; binding buffer with 4 mM MnCl2.

The target in the next assay is T2, integrin α4β1 (Homo sapiens, UniProt P05556+P13612).
T2 construct: cell strain Jurkat (ATCC TIB-152) of human T cells, known to express integrin α4β1; endogenous in cells; host or cells: Jurkat (ATCC TIB-152)
T2 sequence (P05556 21-798, one chain of several): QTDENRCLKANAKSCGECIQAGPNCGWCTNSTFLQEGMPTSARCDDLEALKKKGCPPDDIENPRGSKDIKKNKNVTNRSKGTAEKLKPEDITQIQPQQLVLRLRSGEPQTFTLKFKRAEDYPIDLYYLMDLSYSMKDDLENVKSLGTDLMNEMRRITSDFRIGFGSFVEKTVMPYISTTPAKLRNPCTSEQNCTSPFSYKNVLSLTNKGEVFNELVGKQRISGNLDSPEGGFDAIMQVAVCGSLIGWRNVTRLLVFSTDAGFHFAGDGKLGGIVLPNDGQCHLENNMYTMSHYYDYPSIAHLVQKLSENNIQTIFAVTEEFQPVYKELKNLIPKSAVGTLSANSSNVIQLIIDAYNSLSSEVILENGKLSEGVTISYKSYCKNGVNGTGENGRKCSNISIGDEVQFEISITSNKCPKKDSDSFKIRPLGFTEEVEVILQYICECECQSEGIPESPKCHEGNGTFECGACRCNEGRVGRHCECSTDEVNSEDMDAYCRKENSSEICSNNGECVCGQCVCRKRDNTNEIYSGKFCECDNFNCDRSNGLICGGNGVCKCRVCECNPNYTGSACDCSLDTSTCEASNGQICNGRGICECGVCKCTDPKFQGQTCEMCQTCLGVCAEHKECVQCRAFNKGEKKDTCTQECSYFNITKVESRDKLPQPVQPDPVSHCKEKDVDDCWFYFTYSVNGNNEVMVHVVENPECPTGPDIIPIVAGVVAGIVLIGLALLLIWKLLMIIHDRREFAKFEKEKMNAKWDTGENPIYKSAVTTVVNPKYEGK
As to the kind of experiment: VCAM antagonist activity (VCAM-1/α4β1 binding assay), Jurkat cells binding to VCAM-1. It counts as cell-based. The settings on record: Jurkat human T cells binding to recombinant human VCAM-1; read-out: VCAM antagonistic activity (IC50) α4β1.

As to `Cn1c(=S)n(-c2ccc(C[C@H](NC(=O)c3c(Cl)cccc3Cl)C(=O)O)cc2)c(=O)c2cc([N+](=O)[O-])ccc21` [Example 66], the values for the IC50 on integrin α4β7 and at integrin α4β1 were 0.0013 µM and 0.17 µM, respectively.
Taken in the same sequence, the figures for `CC(C)n1c(=O)n(-c2ccc(C[C@H](NC(=O)c3c(Cl)cccc3Cl)C(=O)O)cc2)c(=O)c2cc([N+](=O)[O-])ccc21` [Example 57] were 0.0299 µM and 0.639 µM.
Take `O=C(N[C@@H](Cc1ccc(-n2c(=O)[nH]c3ccccc3c2=O)cc1)C(=O)O)c1c(Cl)cccc1Cl` [Example 2]: the IC50 was found to be 0.0092 µM at integrin α4β7 and 0.24 µM on integrin α4β1.
Take `Cn1c(=O)n(-c2ccc(C[C@H](NC(=O)c3c(Cl)cccc3Cl)C(=O)O)cc2)c(=O)c2cccc(Cl)c21` [Example 182]: the figures for the IC50 at integrin α4β7 and at integrin α4β1 were 0.0062 µM and 0.113 µM, respectively.
For `O=C(N[C@@H](Cc1ccc(-n2c(=O)[nH]c3ccc(Cl)cc3c2=O)cc1)C(=O)O)c1c(Cl)cccc1Cl` [Example 47] the same measures were 0.076 µM and 1.98 µM.
`Cc1cccc2c1c(=O)n(-c1ccc(C[C@H](NC(=O)c3c(Cl)cccc3Cl)C(=O)O)cc1)c(=O)n2C` [Example 181]: the IC50 was 0.001 µM on integrin α4β7 and 0.015 µM at integrin α4β1.
Taken in the same sequence, the figures for `Cn1c(=O)n(-c2ccc(C[C@H](NC(=O)c3c(Cl)cccc3Cl)C(=O)O)cc2)c(=O)c2cc(Cl)cc(Cl)c21` [Example 71] were 0.011 µM and 0.185 µM.
